# US20210030022A1, “NOVEL USE OF SUBSTITUTED CHROMAN-6-OLS” (DSM IP ASSETS B.V., priority 2018, published 2021)
# “Also recorded” adds a separate entry of the source.
# Legend:
# [1] = Oxipres antioxidant efficacy value (EV) in pet food; details: Oxipres 70° C., 5 bar O2, equimolar to BHT; EV relative to BHT (EV=1)
# Experimental: (§1) Oxidative stability was assessed using an Oxipres (Mikrolab Aarhus A/S, Hojbjerg, Denmark). The ML OXIPRES® is designed to monitor the oxidation of heterogeneous products. Consumption of oxygen results in a pressure drop which is measured by means of pressure transducers. The samples are heated to accelerate the process and shorten the analysis time (Mikrolab Aarhus 2012).
# (§2) Sample weights were 50 g. They were loaded into the Oxipres vessels and placed inside the stainless-steel pressure vessel and sealed. The pressure vessels were purged with pure oxygen and filled to an initial oxygen pressure of 5 bar and maintained at 70° C. during measurement (D. Ying, L. Edin, L. Cheng, L. Sanguansri, M. A. Augustin, LWT—Food Science and Technology 2015, 62, 1105-1111: “Enhanced oxidative stability of extruded product containing polyunsaturated oils.”).
# (§3) The oxygen pressure was recorded as function of time. After sample load and temperature rise the pressure in the device is increasing within 10 hours up to the starting pressure. Thereafter it is decreasing. Consequently, the starting pressure is considered as being the pressure after 10 hours. The analysis ends after 130 hours at 70° C. The oxygen consumption ‘O2’ of the tested sample is calculated as follows: […]
# (§4) A factor of protection called ‘EV’ (Efficacy Value) was developed to quantify with a relative number (relative to BHT) the antioxidant effect of the tested candidates. EV was calculated as follows:
# (§5) EV, being relative to BHT (3,5-di-tert-butyl-4-hydroxy-toluene) (EV=1), makes it possible to compare the antioxidant compounds in a defined feed application.
# (§6) Each of the compounds of formulae (1) to (6) were mixed into each matrix 1, 2 or 3 (pet food, poultry meal, fish meal) in an equimolar ratio compared to BHT. Batches of 200 g feed were produced in order to handle a minimum of 30 mg of antioxidant. First, a 1% pre-dilution of the antioxidant with the feed material was made. Then this pre-dilution was added to the final batch, mixed, sieved (1.25 mm sieve) and mixed using a turbula mixer. Thereafter 55 g of the final batch were packed into polyethylene bags, and stored at 4° C. until start of the Oxipres assay. Spare sample were stored at 4° C. Compound of formula (3) was measured in all three matrices. Compound of formula (1) was measured in matrix 1 and 2. Compound of formula (2) was measured in matrix 2. Compounds of formulae (4), (5) and (6) were measured in matrix 3. An efficacy value 0.7 has been considered as acceptable, an efficacy value ≥ the efficacy value of alpha-tocopherol as good, and an efficacy value ≥ the efficacy value of BHT as very good.
# [2] = Oxipres antioxidant efficacy value (EV) in poultry meal; details: Oxipres 70° C., 5 bar O2, equimolar to BHT; EV relative to BHT (EV=1)
# Experimental: as §1, §2, §3, §4, §5, §6
# Solubility in fish oil = type: physicochemical; details: fish oil, 0.5 and 2 mg/g; mixed around 40° C. to dissolve completely
# Experimental: The compounds of formulae (4), (6), (8) and (9) were evaluated primarily for their oxidative stability by the Oil Stability Index (OSI) measurements. Two different levels of these antioxidants (0.5 and 2 mg/g) were used in 5 g of natural fish oil (Product code: FG30TG) and used in the Oxidative Stability Instrument at 80° C. with the air flow rate of 40 psi. The solubility of different amounts and types of antioxidants used in OSI was checked before and after the application. […]
# [3] = Storage stability in fish oil (PV, p-AV), Example 13; details: for Peroxide values (PV, meq/kg) / p-Anisidine value (p-AV): storage at 25° C.
# Experimental: A storage stability study was performed to compare the variation of primary oxidation products, the hydroperoxides, generated during oxidation, measured in terms of peroxide value (PV) and the secondary oxidation products which were measured and determined as anisidine reactive substances or p-anisidine value (p-AV) of oil samples containing these compounds.
# The two different concentrations of compounds of formulae (3) and (7) were used for the storage stability study. Each compound and MNT were added, each individually, to 40 g of fish oil samples in 60 ml amber bottles at 0.5 mg/g and 2 mg/g levels, thoroughly mixed and stored at ambient temperature for 19 days. All sample bottles were stored open to air, away from light. […] Peroxide values (PV) and p-anisidine values (p-AV) were determined at different times for 19 days.
# [4] = Oil Stability Index (OSI) in crude algal oil, Example 13; details: for OSI: Table 33, crude algal oil (contained about 1.6 mg/g MNT prior to use), 80° C.; for Protection Factor (%): Table 35, crude algal oil (80° C.)
# Experimental: The compounds of formulae (3) and (7) were used in both fish and algal oils to see their antioxidant effect in these oils. Antioxidant effect was determined using mainly the Oil Stability Index (OSI).
# (§7) Two concentration levels were used: 0.5 mg/g (low level) and 2 mg/g (high level), respectively, have been added to 5 g of oil and used in the Oxidative Stability Instrument operated at 80° C. with the continuous air flow rate at ˜40 psi. All samples were run in duplicate. The Protection Factors (PF) for each compound, as percentage, in oil were calculated as,
# The Oil Stability Indices (OSI) of crude algal oil with levels of 0.5 mg/g and 2 mg/g of compounds of formulae (3) or (7) are shown in Table 33.
# [5] = Oil Stability Index (OSI) in fish oil, Example 13; details: for OSI: Table 28, FG30TG fish oil, 80° C.; for Protection Factor (%): Table 34, fish oil (80° C.); for antioxidant activity (OSI) in fish oil compared with MNT: Example 13, 0.5 and 2 mg/g
# Experimental: as §7, with “The compounds of formulae (3) and (7) were used in both fish and algal oils to see their antioxidant effect in these oils. Antioxidant effect was determined using mainly the Oil Stability Index (OSI). Two” for “Two”, “as, [formula]” for “as,”
# [6] = Oxipres antioxidant efficacy value (EV) in fish meal; details: Oxipres 70° C., 5 bar O2, equimolar to BHT; EV relative to BHT (EV=1)
# Experimental: as §1, §2, §3, §4, §5, §6
# [7] = Oil Stability Index (OSI) in fish oil, Example 12; details: for OSI: Table 15, 80° C.; for OSI / Protection Factor (%): FG30TG fish oil; for Protection Factor (%): Table 18
# Experimental: The compounds of formulae (4), (6), (8) and (9) were evaluated primarily for their oxidative stability by the Oil Stability Index (OSI) measurements. Two different levels of these antioxidants (0.5 and 2 mg/g) were used in 5 g of natural fish oil (Product code: FG30TG) and used in the Oxidative Stability Instrument at 80° C. with the air flow rate of 40 psi. The solubility of different amounts and types of antioxidants used in OSI was checked before and after the application.
# The compounds of formulae (6) and (9) (see Table 14 below), compound of formula (4) (see Table 15 below) and compound of formula (8) (see Table 16 below) were used at different times in the Oxidative Stability instruments under similar operational conditions used for fish oil evaluations. MNT and the oil without any antioxidants (“Blank”) were always used to compare. Also, the synergistic effect of only oil soluble compounds with ascorbyl palmitate was determined using the OSI values. The polymers generated at the end of the experiment were determined by LC (LC=liquid chromatography).
# The Protection Factors (PF) for each compound in oil were calculated in percentage as: […]
SMILES,EV in pet food [1],EV in poultry meal [2],Solubility in oil (Solubility in fish oil),"Peroxide values (PV, meq/kg) ([3]; 0.5 mg/g level, 1 day) [meq/kg]","p-Anisidine value (p-AV) ([3]; 0.5 mg/g level, 1 day)","Peroxide values (PV, meq/kg) ([3]; 0.5 mg/g level, 5 days) [meq/kg]","p-Anisidine value (p-AV) ([3]; 0.5 mg/g level, 5 days)","Peroxide values (PV, meq/kg) ([3]; 0.5 mg/g level, 8 days) [meq/kg]","p-Anisidine value (p-AV) ([3]; 0.5 mg/g level, 8 days)","Peroxide values (PV, meq/kg) ([3]; 0.5 mg/g level, 14 days) [meq/kg]","p-Anisidine value (p-AV) ([3]; 0.5 mg/g level, 14 days)","Peroxide values (PV, meq/kg) ([3]; 0.5 mg/g level, 19 days) [meq/kg]","p-Anisidine value (p-AV) ([3]; 0.5 mg/g level, 19 days)","Peroxide values (PV, meq/kg) ([3]; 0.5 mg/g level, Initial) [meq/kg]","p-Anisidine value (p-AV) ([3]; 0.5 mg/g level, Initial)","Peroxide values (PV, meq/kg) ([3]; 2 mg/g level, 1 day) [meq/kg]","p-Anisidine value (p-AV) ([3]; 2 mg/g level, 1 day)","Peroxide values (PV, meq/kg) ([3]; 2 mg/g level, 5 days) [meq/kg]","p-Anisidine value (p-AV) ([3]; 2 mg/g level, 5 days)","Peroxide values (PV, meq/kg) ([3]; 2 mg/g level, 8 days) [meq/kg]",also measured
"Oc1ccc2c(c1)CCCO2 [Compound of formula (1), chroman-6-ol]",0.98,1.12,,,,,,,,,,,,,,,,,,,
"CC(C)CCCC1(C)CCc2cc(O)ccc2O1 (centres unmarked) [Compound of formula (7), 2-(4-methylpentyl)-2-methyl-chroman-6-ol]",,,not readily soluble in oil,1,9.5,2,9.8,6.4,11.1,11.8,12.4,19.5,12.9,1,9.4,1,9.3,1.9,9.3,8.2,"p-Anisidine value (p-AV) ([3]; 2 mg/g level, 8 days): 11.1; Peroxide values (PV, meq/kg) ([3]; 2 mg/g level, 14 days): 16.4 meq/kg; p-Anisidine value (p-AV) ([3]; 2 mg/g level, 14 days): 11.9; Peroxide values (PV, meq/kg) ([3]; 2 mg/g level, 19 days): 27.3 meq/kg; p-Anisidine value (p-AV) ([3]; 2 mg/g level, 19 days): 12.9; Peroxide values (PV, meq/kg) ([3]; 2 mg/g level, Initial): 1 meq/kg; p-Anisidine value (p-AV) ([3]; 2 mg/g level, Initial): 9.4; OSI ([4]; 0.5 mg/g): 16.38 h; OSI ([4]; 2 mg/g): 18.53 h; Protection Factor (%) ([4]; 0.5 mg/g): 9.2%; Protection Factor (%) ([4]; 2 mg/g): 23.5%; OSI ([5]; 0.5 mg/g): 6.15 h; OSI ([5]; 2 mg/g): 7.23 h; Protection Factor (%) ([5]; 0.5 mg/g): 23%; Protection Factor (%) ([5]; 2 mg/g): 44.5%; antioxidant activity (OSI) in fish oil compared with MNT [5]: comparable in activity with MNT"
"CC1(C)CCc2cc(O)ccc2O1 [Compound of formula (3), 2,2-dimethyl-chroman-6-ol]",0.95,1.17,not readily soluble in oil,1,9.5,2,9.5,6.4,11.2,12.8,11.4,20.9,12.8,1,9.4,1,9.4,1.9,9.3,6.4,"EV in Fish meal [6]: 0.96; level of secondary oxidation products (p-AV) during storage ([3]; 0.5 mg/g concentration): lowest level of secondary oxidation products (p-AV); p-Anisidine value (p-AV) ([3]; 2 mg/g level, 8 days): 10.8; Peroxide values (PV, meq/kg) ([3]; 2 mg/g level, 14 days): 14.1 meq/kg; p-Anisidine value (p-AV) ([3]; 2 mg/g level, 14 days): 11.2; Peroxide values (PV, meq/kg) ([3]; 2 mg/g level, 19 days): 26.8 meq/kg; p-Anisidine value (p-AV) ([3]; 2 mg/g level, 19 days): 11.8; Peroxide values (PV, meq/kg) ([3]; 2 mg/g level, Initial): 1 meq/kg; p-Anisidine value (p-AV) ([3]; 2 mg/g level, Initial): 9.4; OSI ([4]; 0.5 mg/g): 17.05 h; OSI ([4]; 2 mg/g): 18.63 h; Protection Factor (%) ([4]; 0.5 mg/g): 13.7%; Protection Factor (%) ([4]; 2 mg/g): 24.2%; OSI ([5]; 0.5 mg/g): 7.13 h; OSI ([5]; 2 mg/g): 7.48 h; Protection Factor (%) ([5]; 0.5 mg/g): 42.5%; Protection Factor (%) ([5]; 2 mg/g): 49.5%; antioxidant activity (OSI) in fish oil compared with MNT [5]: slightly higher Oil Stability Indices than those of MNT; also recorded: comparable in activity with MNT"
"COc1cc2c(cc1O)CCC(C)(C)O2 [Compound of formula (4), 7-Methoxy-2,2-Dimethyl-6-Chromanol]",,,,,,,,,,,,,,,,,,,,,"EV in Fish meal [6]: 1.05; OSI ([7]; 0.5 mg/g): 4.98 h; OSI ([7]; 2 mg/g): 5.95 h; Protection Factor (%) ([7]; 0.5 mg/g): 4.74%; Protection Factor (%) ([7]; 2 mg/g): 25.26%; antioxidant effect (OSI) in fish oil compared with MNT ([7]; fish oil, Example 12, same level of MNT): lower OSI values than those of MNT"
